Calls of active or inactive are those of the source. No cut-off for these calls is given here.
Experiments:
[1] = target: T1, Sodium-dependent serotonin transporter (Homo sapiens, UniProt P31645); assay: biochemical; type: cell-based, HEK293
Target sequence in this assay (P31645 whole entry): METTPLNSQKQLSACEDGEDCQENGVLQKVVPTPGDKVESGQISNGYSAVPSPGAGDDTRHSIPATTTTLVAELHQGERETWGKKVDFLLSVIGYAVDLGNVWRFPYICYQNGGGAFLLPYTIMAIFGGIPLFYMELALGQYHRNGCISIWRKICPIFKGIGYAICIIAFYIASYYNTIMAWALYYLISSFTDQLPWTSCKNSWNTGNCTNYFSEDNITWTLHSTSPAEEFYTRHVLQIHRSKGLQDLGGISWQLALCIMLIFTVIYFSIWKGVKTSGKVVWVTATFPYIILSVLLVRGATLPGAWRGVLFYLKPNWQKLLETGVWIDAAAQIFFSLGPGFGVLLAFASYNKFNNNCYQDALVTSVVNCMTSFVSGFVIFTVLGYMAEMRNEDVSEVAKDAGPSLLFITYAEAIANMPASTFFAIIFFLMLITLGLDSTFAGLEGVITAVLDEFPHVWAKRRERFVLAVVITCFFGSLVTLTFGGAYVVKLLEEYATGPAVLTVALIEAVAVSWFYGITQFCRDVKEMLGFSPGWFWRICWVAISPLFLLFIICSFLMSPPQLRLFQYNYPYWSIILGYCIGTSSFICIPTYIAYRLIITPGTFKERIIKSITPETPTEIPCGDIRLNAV
Description: Displacement of [125I]-RTI-55 from human SERT expressed in HEK293 cell membranes after 1 hr by gamma counting method

[2] = target: T1, Sodium-dependent serotonin transporter; assay: Potency index, ratio of (S)-citalopram Ki to compound Ki for displacement of [125I]-RTI-55 from human SERT expressed in HEK293 cell membranes
Target sequence in this assay (P31645 whole entry, looked up): as the sequence (P31645 whole entry) above

[3] = target: T1, Sodium-dependent serotonin transporter; assay: Binding affinity to human SERT expressed in HEK293 cells at 1 uM preincubated for 1 hr followed by UV light irradiation for 20 mins by IRDye 800 CW azide based tandem photoaffinity labeling-biorthogonal conjugation assay; type: cell-based
Target sequence in this assay (P31645 whole entry, looked up): as the sequence (P31645 whole entry) above

[4] = target: T1, Sodium-dependent serotonin transporter; assay: Binding affinity to human SERT expressed in HEK293 cells at 1 uM after 1 hr by IRDye 800 CW azide based tandem photoaffinity labeling-biorthogonal conjugation assay; type: cell-based
Target sequence in this assay (P31645 whole entry, looked up): as the sequence (P31645 whole entry) above

[5] = target: T1, Sodium-dependent serotonin transporter; assay: Binding affinity to human SERT expressed in HEK293 cells at 1 uM preincubated for 1 hr followed by UV light irradiation for 20 mins in presence of (S)-citalopram by IRDye 800 CW azide based tandem photoaffinity labeling-biorthogonal conjugation assay; type: cell-based
Target sequence in this assay (P31645 whole entry, looked up): as the sequence (P31645 whole entry) above

| Ki [1] [µM] | Ratio Ki [2] | Activity [3] | Activity [4] | Activity [5] | SMILES |
| --- | --- | --- | --- | --- | --- |
| 0.487 | – | – | – | – | C#CCOc1ccc(C(=O)c2ccc(CN(C)CCC[C@@]3(c4ccc(F)cc4)OCc4cc(C#N)ccc43)cc2)cc1 |
| 0.00016 | 11 | Active | inactive | inactive | C#CCOc1ccc(C(=O)c2ccc(C(=O)NCc3ccc4c(c3)CO[C@@]4(CCCN(C)C)c3ccc(F)cc3)cc2)cc1 |

| SMILES | Ki [1] [µM] | Ratio Ki [2] | Activity [3] | Activity [4] | Activity [5] |
| --- | --- | --- | --- | --- | --- |
| CN(C)CCC[C@@]1(c2ccc(F)cc2)OCc2cc(CNC(=O)c3cc(CN=[N+]=[N-])cc(N=[N+]=[N-])c3)ccc21 | 0.0107 | – | – | – | – |

— ChEMBL document CHEMBL4265966 (Bioorg Med Chem Lett, 2018)
